Consider 3 compounds from patent publication US5707648A, “Transparent liquid for encapsulated drug delivery” (LDS Technologies, Inc., priority 1995, dated 1998).

Data set [1] deals with delta-class of opioid receptor. To be noted: Vaughn et al. 1989; cited from earlier work.
Data set [2] can be described thus: Chemical stability of calcitonin in the formulation. In kind it is physicochemical. The settings on record: formulation of Table 7.1.
The conditions of data set [3]: human, in vivo; cited from earlier work.
For a further data set, the system named is plasma Factor VIII. Briefly: Plasma Factor VIII levels following administration of dDAVP (dDAVP Dog Study). Format: in vivo, Male beagle dogs. To be noted: dogs; capsules with 13, 43 and 125 μg dDAVP, dDAVP in dextrose, or s.c. 0.4 μg/kg.
For data set [4] the following is noted: compared with AVP or LVP; cited from earlier work.

Protocol for plasma Factor VIII: Male beagle dogs weighing 9-12 kg were used in all experiments. Prior to each study, all animals were fasted overnight but were allowed access to water ad libitum.
Peroral administration: Enteric coated hard gelatin capsules, size 0el (0.78 ml) from [sequence], fill materials: 0.73 g of the drug delivery compositions containing:
Subcutaneous administration: 4 μg dDAVP/ml composition, 0.4 μg dDAVP/kg animal (Table 6F).
Plasma Factor VIII levels following administration of dDAVP was used as a pharmacodynamic response to the drug. Maximum response to dDAVP was determined by measuring plasma Factor VIII response levels following subcutaneous administration of dDAVP (Table 6F).
For studies involving capsule administration, a single capsule was given to each animal in each study. Blood samples were taken immediately prior to dDAVP administration (t=0), and at various times thereafter. Plasma levels of Factor VIII were determined using commercially available kits.

With [D-Pen^2,5, PCl-Phe^4 ]-enkephalin, in data set [1], the “interaction with the delta-class of opioid receptor” value is reported as “interacts selectively with the delta-class of opioid receptor”. As for calcitonin, the “chemical stability of calcitonin in the formulation” value in data set [2] is “chemically stable in this formulation for at least two months”. For the compound `NC(=O)CC[C@@H]1NC(=O)[C@H](Cc2ccccc2)NC(=O)[C@H](Cc2ccc(O)cc2)NC(=O)CCSSC[C@@H](C(=O)N2CCC[C@H]2C(=O)N[C@H](CCCN=C(N)N)C(=O)NCC(N)=O)NC(=O)[C@H](CC(N)=O)NC1=O` [desmopressin], in data set [3], the oral bioavailability is reported as 0.1-0.2%. Moreover, the “response in plasma Factor VIII levels (in words)” value in the data set on plasma Factor VIII was “dose-dependent increase in plasma Factor VIII levels”. In addition, the “pressor (vasoconstricting) activities” value in data set [4] was “lacks the pressor (vasoconstricting) activities of AVP or LVP”.
